According to US20240124460A1, “METHODS AND COMPOSITIONS FOR TARGETED PROTEIN DEGRADATION” (Ranok Therapeutics (Hangzhou) Co. Ltd., priority 2020, published 2024):

Experiments:
[1] = tested on: U-87 MG human glioblastoma; assay: U87 MG CCK-8 proliferation assay; type: cell-based; conditions: Homo sapiens, U-87 MG, 72 h, U-87 MG cells, read-out: U87MG CCK-8
Outline: (§1)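 CCK-8 absorbance read-out, with inhibition expressed against DMSO-treated cells after subtracting a cell-free DMSO medium blank. Compounds tested over a 3-fold dilution series spanning 20 μM to 1.02 nM; lines grown essentially as ATCC recommends.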

[2] = tested on: MV-4-11 human acute myeloid leukemia; assay: MV-4-11 CCK-8 proliferation assay; type: cell-based; conditions: Homo sapiens, MV4-11; MV-4-11 cells, 72 hr
Outline: as §1

HSP90α protein = target: T1, HSP90α protein (Homo sapiens, UniProt P07900); assay: HSP90α-binding FP (BODIPY) assay; conditions: FP competition with BODIPY-labeled RNK04010
T1 construct: purchased BPS Bioscience #50298
Outline: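 Fluorescence polarization measured competition with N-terminal human HSP90α, using either FITC-geldanamycin or BODIPY-labelled triazolone RNK04010 as tracer (5 nM final each). Compounds were tested in 2.5-fold dilutions from 20 μM to 5.2 nM, with incubation at 25 °C for 120 min (FITC) or 300 min (BODIPY).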

Row | SMILES | EC50 [1] | EC50 [2] | IC50 (HSP90α protein)
1 | CCOc1cc(N2CCC(C(=O)N3CCN(Cc4ccc(-n5c(O)nnc5-c5cc(C(C)C)c(O)cc5O)cc4C(F)(F)F)CC3)CC2)ccc1Nc1ncc2c(n1)N(S(C)(=O)=O)c1ccccc1C(=O)N2C [Compound 072, 2-((4-(4-(4-(4-(3-(2,4-dihydroxy-5-isopropylphenyl)-5-hydroxy-4H-1,2,4-triazol-4-yl)-2-(trifluoromethyl)benzyl)piperazine-1-carbonyl)piperidin-1-yl)-2-ethoxyphenyl)amino)-5-methyl-11-(methylsulfonyl)-5,11-dihydro-6H-benzo[e]pyrimido[5,4-b][1,4]diazepin-6-one] | 100 to 1000 nM | < 100 nM | 100 to 1000 nM
2 | CCOc1cc(N2CCC(C(=O)NCc3ccc(-n4c(O)nnc4-c4cc(C)c(O)cc4O)cc3)CC2)ccc1Nc1ncc2c(n1)N(S(C)(=O)=O)c1ccccc1C(=O)N2C [Compound 073, N-(4-(3-(2,4-dihydroxy-5-methylphenyl)-5-hydroxy-4H-1,2,4-triazol-4-yl)benzyl)-1-(3-ethoxy-4-((5-methyl-11-(methylsulfonyl)-6-oxo-6,11-dihydro-5H-benzo[e]pyrimido[5,4-b][1,4]diazepin-2-yl)amino)phenyl)piperidine-4-carboxamide] | > 1000 nM | > 1000 nM | > 1000 nM
3 | CCCc1cc(-c2nnc(O)n2-c2ccc(CNC(=O)C3CCN(c4ccc(Nc5ncc6c(n5)N(S(C)(=O)=O)c5ccccc5C(=O)N6C)c(OCC)c4)CC3)cc2)c(O)cc1O [Compound 074, N-(4-(3-(2,4-dihydroxy-5-propylphenyl)-5-hydroxy-4H-1,2,4-triazol-4-yl)benzyl)-1-(3-ethoxy-4-((5-methyl-11-(methylsulfonyl)-6-oxo-6,11-dihydro-5H-benzo[e]pyrimido[5,4-b][1,4]diazepin-2-yl)amino)phenyl)piperidine-4-carboxamide] | > 1000 nM | 100 to 1000 nM | > 1000 nM
4 | CCOc1cc(N2CCC(C(=O)N3CCC(Cc4ccc(CN(C)Cc5ccc(-n6c(C(=O)NCC(F)(F)F)nnc6-c6cc(C(C)C)c(O)cc6O)cc5)cc4)CC3)CC2)ccc1Nc1ncc2c(n1)N(S(C)(=O)=O)c1ccccc1C(=O)N2C [Compound 076, 5-(2,4-dihydroxy-5-isopropylphenyl)-4-(4-(((4-((1-(1-(3-ethoxy-4-((5-methyl-11-(methylsulfonyl)-6-oxo-6,11-dihydro-5H-benzo[e]pyrimido[5,4-b][1,4]diazepin-2-yl)amino)phenyl)piperidine-4-carbonyl)piperidin-4-yl)methyl)benzyl)(methyl)amino)methyl)phenyl)-N-(2,2,2-trifluoroethyl)-4H-1,2,4-triazole-3-carboxamide] | > 1000 nM | 100 to 1000 nM | > 1000 nM
5 | CCOc1cc(N2CCC(C(=O)N[C@H](C)c3ccc(CN4CCC(Cc5ccc(-n6c(O)nnc6-c6cc(C(C)C)c(O)cc6O)cc5)CC4)cc3)CC2)ccc1Nc1ncc2c(n1)N(S(C)(=O)=O)c1ccccc1C(=O)N2C [Compound 077, (R)—N-(1-(4-((4-(4-(3-(2,4-dihydroxy-5-isopropylphenyl)-5-hydroxy-4H-1,2,4-triazol-4-yl)benzyl)piperidin-1-yl)methyl)phenyl)ethyl)-1-(3-ethoxy-4-((5-methyl-11-(methylsulfonyl)-6-oxo-6,11-dihydro-5H-benzo[e]pyrimido[5,4-b][1,4]diazepin-2-yl)amino)phenyl)piperidine-4-carboxamide] | 100 to 1000 nM | < 100 nM | 100 to 1000 nM
6 | CCOc1cc(N2CCC(C(=O)NCC3CCN(C(=O)C4CCN(Cc5ccc(-n6c(O)nnc6-c6cc(CC)c(O)cc6O)cc5)CC4)CC3)CC2)ccc1Nc1ncc2c(n1)N(S(C)(=O)=O)c1ccccc1C(=O)N2C [Compound 079, 1-(3-ethoxy-4-((5-methyl-11-(methylsulfonyl)-6-oxo-6,11-dihydro-5H-benzo[e]pyrimido[5,4-b][1,4]diazepin-2-yl)amino)phenyl)-N-((1-(1-(4-(3-(5-ethyl-2,4-dihydroxyphenyl)-5-hydroxy-4H-1,2,4-triazol-4-yl)benzyl)piperidine-4-carbonyl)piperidin-4-yl)methyl)piperidine-4-carboxamide] | > 1000 nM | 100 to 1000 nM | < 100 nM

Results, then the compound that gave them:

Row | EC50 [1] | EC50 [2] | IC50 (HSP90α protein) | SMILES
7 | > 1000 nM | < 100 nM | 100 to 1000 nM | CCOc1cc(N2CCC(C(=O)NCc3ccc(-n4c(O)nnc4-c4cc(C(C)C)c(O)cc4O)cc3)CC2)ccc1Nc1ncc2c(n1)N(S(C)(=O)=O)c1ccccc1C(=O)N2C [Compound 080, N-(4-(3-(2,4-dihydroxy-5-isopropylphenyl)-5-hydroxy-4H-1,2,4-triazol-4-yl)benzyl)-1-(3-ethoxy-4-((5-methyl-11-(methylsulfonyl)-6-oxo-6,11-dihydro-5H-benzo[e]pyrimido[5,4-b][1,4]diazepin-2-yl)amino)phenyl)piperidine-4-carboxamide]
8 | 100 to 1000 nM | < 100 nM | < 100 nM | CCOc1cc(N2CCC(C(=O)N3CCC(CN4CCN(Cc5ccc(-n6c(C(=O)NCC(F)(F)F)nnc6-c6cc(C)c(O)cc6O)cc5)CC4)CC3)CC2)ccc1Nc1ncc2c(n1)N(S(C)(=O)=O)c1ccccc1C(=O)N2C [Compound 081, 5-(2,4-dihydroxy-5-methylphenyl)-4-(4-((4-((1-(1-(3-ethoxy-4-((5-methyl-11-(methylsulfonyl)-6-oxo-6,11-dihydro-5H-benzo[e]pyrimido[5,4-b][1,4]diazepin-2-yl)amino)phenyl)piperidine-4-carbonyl)piperidin-4-yl)methyl)piperazin-1-yl)methyl)phenyl)-N-(2,2,2-trifluoroethyl)-4H-1,2,4-triazole-3-carboxamide]
9 | < 100 nM | < 100 nM | < 100 nM | CCOc1cc(N2CCC(C(=O)N3CCC(CN4CCN(Cc5ccc(-n6c(O)nnc6-c6cc(CC)c(O)cc6O)cc5F)CC4)CC3)CC2)ccc1Nc1ncc2c(n1)N(S(C)(=O)=O)c1ccccc1C(=O)N2C [Compound 082, 2-((2-ethoxy-4-(4-(4-((4-(4-(3-(5-ethyl-2,4-dihydroxyphenyl)-5-hydroxy-4H-1,2,4-triazol-4-yl)-2-fluorobenzyl)piperazin-1-yl)methyl)piperidine-1-carbonyl)piperidin-1-yl)phenyl)amino)-5-methyl-11-(methylsulfonyl)-5,11-dihydro-6H-benzo[e]pyrimido[5,4-b][1,4]diazepin-6-one]
10 | < 100 nM | < 100 nM | < 100 nM | CCOc1cc(N2CCC(C(=O)N3CCC(CN4CCN(Cc5ccc(-n6c(C(=O)NC7(C)CC7)nnc6-c6cc(CC)c(O)cc6O)cc5)CC4)CC3)CC2)ccc1Nc1ncc2c(n1)N(S(C)(=O)=O)c1ccccc1C(=O)N2C [Compound 083, 4-(4-((4-((1-(1-(3-ethoxy-4-((5-methyl-11-(methylsulfonyl)-6-oxo-6,11-dihydro-5H-benzo[e]pyrimido[5,4-b][1,4]diazepin-2-yl)amino)phenyl)piperidine-4-carbonyl)piperidin-4-yl)methyl)piperazin-1-yl)methyl)phenyl)-5-(5-ethyl-2,4-dihydroxyphenyl)-N-(1-methylcyclopropyl)-4H-1,2,4-triazole-3-carboxamide]
